Results reported in patent publication US20080114066A1, “Synergistic Effects Of Docosahexaenoic Acid (DHA) And Carotenoid Absorption Of Cognitive Function” (Trustees of Tufts College, priority 2005, published 2008).

Key:
Format in all cases: in vivo, human
[1] = tested on: non-smoking women (60-80 years); test: NES2 Mood Scales (self-reported mood); parameters: scale not given here; settings: group mean
From the text: (§1) Subjects: Fifty non-smoking women (60-80 years) were recruited from the general population for a 4 month supplementation study. All subjects underwent a screening examination that includes a medical history, a physical examination, and a routine blood clinical chemistry profile. Volunteers with any history or biochemical evidence of lactose intolerance, liver, kidney, or pancreatic disease, anemia, active bowel disease or resection, insulin-dependent diabetes, easy bruising or bleeding, bleeding disorders, hyperglyceridemia, hyperlipidproteinemia, or alcoholism were excluded from the study. Moreover, individuals taking mineral oil or medications suspected of interfering with fat-soluble vitamin absorption were excluded. Subjects using steroids or non-steroid anti-inflammatory drugs, or antihistamine drugs were excluded. […] Subjects were excluded if they have taken any nutrient supplement for 2 months or more before admission into the study or carotene supplements 6 months or more before the study. Smoking was not permitted during the course of the study.
(§2) Women were randomly assigned to one of four groups: Control (n=10), DHA (n=14, DHA 800 mg/d), lutein (n=12, lutein 12 mg/d), and lutein+DHA (n=14, lutein 12 mg/d; DHA 800 mg/d) (C, D, L, and LD, respectively). The supplement type was randomized. Subjects visited the Jean Mayer USDA Human Nutrition Research Center on Aging at Tufts University on days that supplements were distributed and blood obtained (0 mo-baseline, 2 mo, and 4 mo). Subjects were instructed to take the supplement with a nutritional energy drink (8 oz., Boost®, Mead Johnson Nutritionals) but were otherwise asked to not alter their diets. The diet of each subject was monitored with food frequency questionnaires (Block G, et al., A data-based approach to diet questionnaire design and testing. Am J Epidemiol, 1986. 24: p. 453-469) completed at baseline, 2 months and 4 months to be sure that there were no confounding changes in dietary intake. All subjects completed at least two sets of cognitive and mood self-report tests, at the beginning of the study, then at the end of the study, after four months of supplementation, at the Schepens Eye Research Institute. Compliance was by monitored by interview, compliance calendars and capsule count. Both the subjects and the experimenter were masked to the experimental groups. Blood samples were collected at baseline, 2 months and 4 months, and serum was separated from red blood cells (800×g, 10 minutes). Aliquots of serum are stored at −70° C. until analyzed. At baseline and 2 months, a two month supply of placebo supplements, DHA (800 mg/d, DHASCO, Martek Biological Sciences), lutein (12 mg/d plus 0.5 mg zeaxanthin, Kemin Foods), or lutein+DHA (12 mg/d and 800 mg/d, respectively and nutritional energy drink was provided. At baseline and 4 months, subjects visited the Schepens Eye Research Institute (Boston, Mass.) for testing of MP optical density (MPOD) and an ophthalmic exam. There were two visits at each time point.
(§3) Supplementation Protocol. Dietary supplements in capsule form were Lutein (12 mg/day) (Kemin Foods) and Docosahexaenoic Acid (DHASCO) (800 mg/day) (Martek Biological Sciences). Participants in each of the four supplementation groups were instructed to drink one can of a nutritional supplement daily (Boost Plus) (Mead Johnson) when taking their capsules. Subjects ingested their dietary supplements daily for a period of 4 months. Both the subjects and the experimenter were masked to the experimental groups.
(§4) Tests and Measurements. The battery of cognitive tests included tests of memory and processing speed or attention and a measure of self-reported mood. […] Early cognitive markers of the incidence of dementia and mortality: A longitudinal population-based study of the oldest old. International Journal of Geriatric Psychiatry, 12, 53-59; Payton, M., Riggs, K. M., Spiro III, A., Weiss, S. T. & Hu, H. (1998). […]

[2] = tested on: non-smoking women (60-80 years); test: Word List Memory Test; settings: group mean
From the text: as §1, §2, §3, §4

macular pigment = test: Macular pigment optical density (MPOD), psychophysical method; settings: for Mean increase in total MPOD (change from baseline): 4 months of supplementation, area under the curve of 5 loci, mean ± se
Method: as §2
The method of assessing MPOD involves a three-channel Maxwellian view optical system and used a psycho physical method described by Hammond et al. (Hammond B. R., et al., Vision Res, 1996. 36: p. 2001-2012). […] MPOD was measured in two baseline sessions on separate days and in two sessions on separate days at the end of 4 months of supplementation.
Differences between cognitive and mood scores at baseline and after supplementation were tested by Student's t test for each treatment group. In the case of those variables where a significant change was found from baseline to end of study, correlations were calculated between age, education, serum levels of DHA and lutein, and test scores, for those test scores where the distribution was normal or near-normal. […]

[3] = tested on: non-smoking women (60-80 years); test: NES2 Pattern Comparison (Pattern Recognition) Test; settings: group mean
From the text: as §1, §2, §3, §4

[4] = tested on: non-smoking women (60-80 years); test: Stroop Test (computerized); settings: group mean; for Stroop Test Total RT, Interference (NC-C): subtask 4 minus subtask 3
From the text: as §1, §2, §3, §4

[5] = Baseline, before supplementation
[6] = Final, after 4 months of supplementation

Row | SMILES | Mood Scales Anger [1, 5] | Mood Scales Confusion [1, 5] | Mood Scales Depression [1, 5] | Mood Scales Fatigue [1, 5] | Mood Scales Tension [1, 5] | Mood Scales Anger [1, 6] | Mood Scales Confusion [1, 6] | Mood Scales Depression [1, 6] | Mood Scales Fatigue [1, 6] | Mood Scales Tension [1, 6] | Word List Memory Test Delayed Recall (max. 10) [2, 5] | Word List Memory Test Trial 1 Items Recalled (max. 10) [2, 5] | Word List Memory Test Trials to Learned List (max. 4) [2, 5] | Word List Memory Test Delayed Recall (max. 10) [2, 6] | Word List Memory Test Trial 1 Items Recalled (max. 10) [2, 6] | Word List Memory Test Trials to Learned List (max. 4) [2, 6] | Mean increase in total MPOD (change from baseline) (macular pigment) [OD] | Pattern Recognition Test Mean Response Time-Correct [3, 5] [s] | Pattern Recognition Test Number Correct (max. 15) [3, 5] | Pattern Recognition Test Mean Response Time-Correct [3, 6] [s] | further results
1 | CC/C=C\C/C=C\C/C=C\C/C=C\C/C=C\C/C=C\CCC(=O)O [DHA, cis-4,7,10,13,16,19-docosahexaenoic acid] | 1.6 | 1.7 | 1.7 | 2.1 | 2.0 | 1.6 | 1.8 | 1.7 | 2.1 | 2.1 | 8.1 | 6.3 | 3.0 | 8.6 | 5.9 | 3.0 | 0.037±0.068 | 5.4 | 14.6 | 5.0 | Retinal loci with significant increase in MPOD (macular pigment; 4 month change from baseline, loci 0.4°, 1.5°, 3°, 5°): 0.4°; Pattern Recognition Test Number Correct (max. 15) [3, 6]: 14.6; Stroop Test Mean RT, Name Colors [4, 5]: 838 ms; Stroop Test Mean RT, Name Colors-Words [4, 5]: 1269 ms; Stroop Test Mean RT, Read Words-Black [4, 5]: 879 ms; Stroop Test Mean RT, Read Words-Color [4, 5]: 715 ms; Stroop Test Total RT, Interference (NC-C) [4, 5]: 21.5 s; Stroop Test Mean RT, Name Colors [4, 6]: 884 ms; Stroop Test Mean RT, Name Colors-Words [4, 6]: 1277 ms; Stroop Test Mean RT, Read Words-Black [4, 6]: 748 ms; Stroop Test Mean RT, Read Words-Color [4, 6]: 727 ms; Stroop Test Total RT, Interference (NC-C) [4, 6]: 19.7 s
2 | CC1=C[C@H](O)CC(C)(C)[C@H]1/C=C/C(C)=C/C=C/C(C)=C/C=C/C=C(C)/C=C/C=C(C)/C=C/C1=C(C)C[C@@H](O)CC1(C)C [Lutein, lutein] | 1.4 | 1.9 | 1.5 | 2.4 | 2.1 | 1.5 | 2.4 | 1.8 | 2.9 | 2.4 | 6.8 | 5.8 | 3.4 | 7.6 | 5.8 | 3.5 | 0.370±0.140 | 6.1 | 14.5 | 6.4 | Subjects without increase in MPOD (non responders) (macular pigment; 4 months of lutein supplementation): Two of 14; Pattern Recognition Test Number Correct (max. 15) [3, 6]: 14.3; Stroop Test Mean RT, Name Colors [4, 5]: 1008 ms; Stroop Test Mean RT, Name Colors-Words [4, 5]: 1492 ms; Stroop Test Mean RT, Read Words-Black [4, 5]: 844 ms; Stroop Test Mean RT, Read Words-Color [4, 5]: 753 ms; Stroop Test Total RT, Interference (NC-C) [4, 5]: 24.2 s; Stroop Test Mean RT, Name Colors [4, 6]: 1014 ms; Stroop Test Mean RT, Name Colors-Words [4, 6]: 1462 ms; Stroop Test Mean RT, Read Words-Black [4, 6]: 945 ms; Stroop Test Mean RT, Read Words-Color [4, 6]: 883 ms; Stroop Test Total RT, Interference (NC-C) [4, 6]: 22.4 s
